Laboratory results published in patent US3984415A, “1-Nitrophenylpyrido [2,3-d] pyrimidine-2,4(1H,3H)-diones” (Hisamitsu Pharmaceutical Co., Inc., priority 1973, dated 1976).
Where two headings read alike, the source gives them in different places.

Legend:
[1] = Anti-inflammatory effect (carrageenin edema of hind paw); assay type: in vivo, Wistar-strain male rats; details: Rattus norvegicus, po, orally, rats, 3 hours, read-out: anti-inflammatory effect (inhibition percentage of carrageenin edema)
Method: 2. Anti-inflammatory effect
A group of five Wistar-strain male rats (100-150 g) were orally administered with each test compound suspended in 0.5 % tragacanth-saline solution. After 30 minutes 0.5 %-1.0 % carrageenin suspended in the water for injection was injected subcutaneously to a hind paw. After 3 hours the carrageenin edema was measured by volume and the inhibition percentage was determined with respect to the results for the control animals. The inhibition percentages were shown with the notations as follows: […]

[2] = tested on: dd-strain male mice; details: 72 hours
Method: The lethal dose was estimated from the death of animals 72 hours after administration.

[3] = Analgetic effect (acetic acid writhing syndrome); assay type: in vivo, dd-strain male mice; details: Mus musculus, ip, mice
[4] = Analgetic effect (acetic acid writhing syndrome); assay type: in vivo, dd-strain male mice; details: Mus musculus, po; orally, mice, acetic acid writhing
Method: Each test compound suspended in 0.5 % tragacanth-saline solution was orally administered to dd-strain male mice (18-20 g). After one hour 0.6% acetic acid solution was intraperitoneally injected in a volume of 0.1 ml/10 g.

SMILES | inhibition in vivo at 10 mg/kg [1] [%] | inhibition in vivo at 50 mg/kg [1] [%] | acute toxicity (lethal dose) ([2]; i.p.) [mg/kg] | ED50 [3] [mg/kg] | ED50 [4] [mg/kg] | inhibition in vivo at 20 mg/kg [1] [%] | inhibition in vivo at 100 mg/kg [1] [%] | acute toxicity (lethal dose) ([2]; p.o.) [mg/kg]
Cc1c(N(C)C)c(=O)n(-c2ccccc2)n1C [aminopyrine, reference compound] | < 15 | < 15 | 100 to 300 | 56 |  |  |  | 
C=CCn1c(=O)c2cccnc2n(-c2cccc([N+](=O)[O-])c2)c1=O [Compound 9, 1-(m-nitrophenyl)-3-allylpyrido[2,3-d]pyrimidine-2,4(1H,3H)-dione] | > 61 | > 61 |  |  | 2.6 | 46 to 60 | > 61 | > 2000
CC(C)Cn1c(=O)c2cccnc2n(-c2cccc([N+](=O)[O-])c2)c1=O [Compound 7] |  | 31 to 45 | 1000 |  | 3.1 | 31 to 45 | 31 to 45 | > 2000
CC(C)=CCn1c(=O)c2cccnc2n(-c2cccc([N+](=O)[O-])c2)c1=O [Compound 10] | 31 to 45 | > 61 |  |  | 0.43 | 31 to 45 | 46 to 60 | > 2000
